Data reported in patent publication US20200062719A1, “Application of Imidazopyridine Derivatives in Regenerative Medicine” (University of Heidelberg, priority 2018, published 2020).

Legend:
[1] = system: human fibroblasts; experiment: Episome-based reprogramming of human fibroblasts, AP+ / iPSC-like colonies; assay type: cell-based
Protocol: O4I3 was applied in commercially available episome-based reprogramming cocktail containing episomal vectors for overexpression of Oct4, Sox2, Klf4, Lin28 and L-Myc, as well as suppression of p53. In comparison to non-treated fibroblast cultures, 20 times more alkaline phosphatase (AP) positive colonies were detected in the presence of O4I3 at a concentration of 50 nM in two tested human primary fibroblasts (HF1 and HF2) (FIG. 13).
It is known in the art that senescence or other unknown factors can confer donor fibroblasts resistance to reprogramming. Therefore, O4I3 was tested for its ability to enable reprogramming of refractory fibroblasts. Two human fibroblasts were selected. HFF-LTR7-EGFP at passage >40 carrying EGFP driven by a LTR7 promoter, which was activated during reprogramming, and HF5, isolated from a patient sample, both of which were resistant to an episome-based reprogramming approach (FIG. 13).
Epi5® Episomal iPSC Reprogramming Kit (Life technologies) was used to reprogram human fibroblasts according to the manufacturer's protocol. Briefly, 5,000-50,000 cells were seeded in a 24-well plate for 24 h and then transfected with episomal vectors in N2 B27 medium. After 14 days, cells were re-suspended with 0.5 mM EDTA and re-plated in a 6-well plate in Essential®8 medium. Colonies were isolated after 3-4 weeks with the help of alkaline phosphatase (AP) live stain (Life technologies). Medium was refreshed daily.

[2] = system: hiPSCs; experiment: Differentiation markers in hiPSCs at high concentration; assay type: cell-based, human; conditions: 10 μM
[3] = system: human fibroblasts; experiment: qRT-PCR of reprogramming associated genes in human fibroblasts; assay type: cell-based; conditions: human fibroblasts, O4I3 0.5 μM
Protocol: Analyzing the effects of O4I3 on human fibroblasts, the activation of reprogramming associated genes, including an about 10-fold induction of Oct4, Nanog and Lin28, and an about 100-fold increase of Sox2 and E-Cadherin mRNA levels was detected. In particular, expression of several essential genes for reprogramming is equal to those in pluripotent stem cells, such as Esrrb, FGF2 and Sall4 (FIG. 12).
Quantitative reverse-transcription real-time-PCR was performed using a Light Cycler 96 (Roche, Germany) following the manufacturer's protocol. Briefly, total RNA was isolated from cells using TRIzol (Qiagen, Germany) or NucleoSpin®RNA Plus (Macherey-Nagel, Germany). The same amount of RNA was used to reverse-transcriptional synthesize cDNA by using random primers ProtoScript® First Strand cDNA Synthesis Kit (NEB, Germany). qPCR was performed using the SYBR Green PCR master mix (qPCRBIO SyGreen Mix Lo-Rox, Nippon Genetics, Germany) and the primer pairs indicated below (MWG, Eurofins, Germany). Actin was used as an endogenous control. Data were normalized to the value of untreated cells showing the mean±SD of quadruplicates and are representative of at least three independent experiments.

[4] = target: T1, KDM5B (Homo sapiens, UniProt Q9UGL1); experiment: KDM5B inhibition, enzyme immunoprecipitated from cells; assay type: biochemical
T1 construct: magnetic beads were used to immunoprecipitate the respective enzymes from 10^8 cells; endogenous in cells
T1 sequence (Q9UGL1 whole entry): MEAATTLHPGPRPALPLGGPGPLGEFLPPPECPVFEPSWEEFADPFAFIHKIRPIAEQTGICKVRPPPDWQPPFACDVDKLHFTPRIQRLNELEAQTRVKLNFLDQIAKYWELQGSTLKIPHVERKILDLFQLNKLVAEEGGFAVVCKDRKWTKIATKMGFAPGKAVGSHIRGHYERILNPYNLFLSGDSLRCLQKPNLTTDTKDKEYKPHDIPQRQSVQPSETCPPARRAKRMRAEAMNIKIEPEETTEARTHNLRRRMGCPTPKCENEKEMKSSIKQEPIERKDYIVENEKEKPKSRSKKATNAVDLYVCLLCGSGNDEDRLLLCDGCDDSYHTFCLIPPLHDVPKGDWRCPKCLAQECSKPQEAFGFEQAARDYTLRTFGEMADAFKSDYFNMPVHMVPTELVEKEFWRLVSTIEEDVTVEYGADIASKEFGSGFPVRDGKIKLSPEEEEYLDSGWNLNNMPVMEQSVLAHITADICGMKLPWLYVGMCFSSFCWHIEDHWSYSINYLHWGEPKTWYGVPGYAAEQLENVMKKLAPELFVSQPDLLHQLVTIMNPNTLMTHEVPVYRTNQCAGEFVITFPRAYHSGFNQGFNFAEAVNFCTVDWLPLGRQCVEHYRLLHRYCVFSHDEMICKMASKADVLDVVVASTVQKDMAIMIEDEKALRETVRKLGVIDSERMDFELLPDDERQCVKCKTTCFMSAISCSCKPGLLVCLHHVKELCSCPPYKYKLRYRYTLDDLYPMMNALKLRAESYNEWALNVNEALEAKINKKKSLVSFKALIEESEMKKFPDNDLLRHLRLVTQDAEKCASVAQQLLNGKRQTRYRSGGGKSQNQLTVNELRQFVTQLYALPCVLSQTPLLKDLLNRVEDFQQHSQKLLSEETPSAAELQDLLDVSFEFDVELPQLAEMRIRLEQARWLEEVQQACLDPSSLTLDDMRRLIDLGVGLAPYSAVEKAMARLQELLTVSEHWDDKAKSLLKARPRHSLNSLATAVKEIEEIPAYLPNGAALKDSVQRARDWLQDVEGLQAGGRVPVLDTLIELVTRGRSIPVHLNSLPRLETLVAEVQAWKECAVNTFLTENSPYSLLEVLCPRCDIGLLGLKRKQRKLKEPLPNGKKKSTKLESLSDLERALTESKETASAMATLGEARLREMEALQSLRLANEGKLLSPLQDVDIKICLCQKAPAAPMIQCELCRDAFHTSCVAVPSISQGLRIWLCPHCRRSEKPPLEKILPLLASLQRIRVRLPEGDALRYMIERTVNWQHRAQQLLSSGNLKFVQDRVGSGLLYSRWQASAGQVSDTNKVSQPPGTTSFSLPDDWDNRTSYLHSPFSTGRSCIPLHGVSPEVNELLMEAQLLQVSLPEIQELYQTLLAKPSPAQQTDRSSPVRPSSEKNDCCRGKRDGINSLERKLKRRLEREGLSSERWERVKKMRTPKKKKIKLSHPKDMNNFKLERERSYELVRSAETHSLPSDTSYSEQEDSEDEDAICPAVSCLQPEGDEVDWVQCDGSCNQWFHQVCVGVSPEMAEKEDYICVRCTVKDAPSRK
From the text: (§1) In mammalian cells, the KDM5 family consists of four members, namely, KDM5A (known as JARID1A), KDM5B (known as JARID1B or PLU1), KDM5C (JARID1C), and KDM5D (JARID1D or SMCY). […] Next, the inventors tested four KDM chemical inhibitors. […] The inventors detected the induction of OCT4, SOX2, and E-Cadherin expression in JIB-04-treated HFs (FIG. 18D).
(§2) Epiquik histone demethylase (H3K4 specific) activity/inhibition assay kit (Epigentek, Biocat, Germany) was used to measure the protective effect of O4I3 and zolpidem on the methylation of H3K4. Their inhibitory effects on LSD1, KDM5s, and KDM4 were determined using Epigenase jarid demethylase activity/inhibition assay kit, Epigenase JMJD2 demethylase activity/inhibition assay kit and EpiQuik histone demethylase LSD1 activity/inhibition assay kit (Epigentek, Biocat, Germany). The total nuclear extraction was used according to manufacturer's instructions. For measuring KDM5A, KDM5B, KDM5C, and KDM5D activity, magnetic beads were used to immunoprecipitate the respective enzymes from 10^8 cells according to the manufacturer's instructions (Cell Signaling Technologies).

[5] = target: methylated H3K4; experiment: In vitro H3K4 methylation assay (Epiquik histone demethylase H3K4 specific kit); assay type: biochemical; conditions: in vitro methylation assay; read-out: IC50, protection of methylated H3K4
Protocol: as §2

[6] = system: reprogramming-related proteins; experiment: Phosphorylation microarray in NCCIT and JoPaca-1 cells; assay type: cell-based; conditions: NCCIT and JoPaca-1, 1 μM, 24 hours
Protocol: Cells were analysed in the presence (24 hours O4I3 1 μM) or absence (NT) of O4I3.
The cellular responses to O4I3 was analyzed in two stem cell lines, NCCIT and JoPaca-1 (FIG. 10).

[7] = target: T2, LSD1 (Homo sapiens, UniProt O60341); experiment: LSD1 demethylase inhibition, nuclear extraction; assay type: biochemical; conditions: even at a concentration of 100 mM
T2 construct: using the whole-cell nuclear extraction; endogenous in cells
From the text: HMT and HDM are two major classes of enzymes, contributing to the regulation of histone methylation. Lysine-specific demethylase 1 (LSD1) and histone lysine demethylase 5 (KDM5, also known as JARID1) majorly catalyze demethylation of H3K4. A few KDM5 chemical inhibitors have been reported to inhibit demethylation of H3K4, leading to an increase of global methylated H3K4 in various cell types. The inventors tested the inhibitory effect of O4I3 on LSD1 and KDM5. KDM4 (also known as JMJD2), the HDM of H3K9 and H3K36, was also included.
as §2

[8] = target: T3, KDM5D (Homo sapiens, UniProt Q9BY66); experiment: KDM5D inhibition, enzyme immunoprecipitated from cells; assay type: biochemical
T3 construct: magnetic beads were used to immunoprecipitate the respective enzymes from 10^8 cells; endogenous in cells
T3 sequence (Q9BY66 whole entry): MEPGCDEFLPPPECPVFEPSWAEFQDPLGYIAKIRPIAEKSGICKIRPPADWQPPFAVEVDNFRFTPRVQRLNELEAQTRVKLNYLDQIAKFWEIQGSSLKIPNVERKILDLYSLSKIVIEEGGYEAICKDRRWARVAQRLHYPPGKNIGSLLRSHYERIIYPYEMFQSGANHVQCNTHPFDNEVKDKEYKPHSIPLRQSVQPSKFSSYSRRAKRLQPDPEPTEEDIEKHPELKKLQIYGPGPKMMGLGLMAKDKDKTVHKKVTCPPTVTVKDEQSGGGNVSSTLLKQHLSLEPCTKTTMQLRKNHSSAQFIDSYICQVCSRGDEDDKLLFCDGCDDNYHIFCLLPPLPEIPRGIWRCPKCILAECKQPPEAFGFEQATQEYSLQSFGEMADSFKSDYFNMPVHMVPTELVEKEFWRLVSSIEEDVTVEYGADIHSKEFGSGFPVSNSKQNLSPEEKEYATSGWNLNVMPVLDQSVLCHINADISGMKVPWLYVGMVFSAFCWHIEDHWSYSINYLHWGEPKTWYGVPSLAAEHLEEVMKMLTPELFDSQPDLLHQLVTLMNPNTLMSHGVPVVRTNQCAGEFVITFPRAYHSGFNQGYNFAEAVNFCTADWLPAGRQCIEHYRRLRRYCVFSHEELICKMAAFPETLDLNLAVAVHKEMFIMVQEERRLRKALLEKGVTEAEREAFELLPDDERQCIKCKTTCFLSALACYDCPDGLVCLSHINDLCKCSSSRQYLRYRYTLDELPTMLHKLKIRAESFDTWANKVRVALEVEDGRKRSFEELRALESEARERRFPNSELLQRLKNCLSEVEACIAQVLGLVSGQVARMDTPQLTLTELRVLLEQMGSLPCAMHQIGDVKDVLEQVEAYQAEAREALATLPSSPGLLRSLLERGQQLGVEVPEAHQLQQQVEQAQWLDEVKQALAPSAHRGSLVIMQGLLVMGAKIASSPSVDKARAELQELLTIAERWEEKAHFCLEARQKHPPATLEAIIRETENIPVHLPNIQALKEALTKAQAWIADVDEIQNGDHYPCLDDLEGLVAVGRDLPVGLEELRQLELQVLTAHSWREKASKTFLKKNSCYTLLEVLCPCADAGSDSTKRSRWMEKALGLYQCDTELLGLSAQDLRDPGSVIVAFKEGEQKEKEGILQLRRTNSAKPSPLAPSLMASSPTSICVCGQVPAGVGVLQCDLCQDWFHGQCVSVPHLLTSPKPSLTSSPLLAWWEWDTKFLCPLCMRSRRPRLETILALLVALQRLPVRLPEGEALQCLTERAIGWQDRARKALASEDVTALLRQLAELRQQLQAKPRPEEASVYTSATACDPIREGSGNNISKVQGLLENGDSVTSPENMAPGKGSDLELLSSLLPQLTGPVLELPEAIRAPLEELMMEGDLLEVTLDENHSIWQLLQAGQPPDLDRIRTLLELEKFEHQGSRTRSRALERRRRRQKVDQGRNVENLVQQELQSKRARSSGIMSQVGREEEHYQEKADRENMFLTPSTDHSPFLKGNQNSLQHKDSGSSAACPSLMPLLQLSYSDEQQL
From the text: as §1, §2

[9] = target: T4, KDM5C (Homo sapiens, UniProt P41229); experiment: KDM5C inhibition, enzyme immunoprecipitated from cells; assay type: biochemical
T4 construct: magnetic beads were used to immunoprecipitate the respective enzymes from 10^8 cells; endogenous in cells
T4 sequence (P41229 whole entry): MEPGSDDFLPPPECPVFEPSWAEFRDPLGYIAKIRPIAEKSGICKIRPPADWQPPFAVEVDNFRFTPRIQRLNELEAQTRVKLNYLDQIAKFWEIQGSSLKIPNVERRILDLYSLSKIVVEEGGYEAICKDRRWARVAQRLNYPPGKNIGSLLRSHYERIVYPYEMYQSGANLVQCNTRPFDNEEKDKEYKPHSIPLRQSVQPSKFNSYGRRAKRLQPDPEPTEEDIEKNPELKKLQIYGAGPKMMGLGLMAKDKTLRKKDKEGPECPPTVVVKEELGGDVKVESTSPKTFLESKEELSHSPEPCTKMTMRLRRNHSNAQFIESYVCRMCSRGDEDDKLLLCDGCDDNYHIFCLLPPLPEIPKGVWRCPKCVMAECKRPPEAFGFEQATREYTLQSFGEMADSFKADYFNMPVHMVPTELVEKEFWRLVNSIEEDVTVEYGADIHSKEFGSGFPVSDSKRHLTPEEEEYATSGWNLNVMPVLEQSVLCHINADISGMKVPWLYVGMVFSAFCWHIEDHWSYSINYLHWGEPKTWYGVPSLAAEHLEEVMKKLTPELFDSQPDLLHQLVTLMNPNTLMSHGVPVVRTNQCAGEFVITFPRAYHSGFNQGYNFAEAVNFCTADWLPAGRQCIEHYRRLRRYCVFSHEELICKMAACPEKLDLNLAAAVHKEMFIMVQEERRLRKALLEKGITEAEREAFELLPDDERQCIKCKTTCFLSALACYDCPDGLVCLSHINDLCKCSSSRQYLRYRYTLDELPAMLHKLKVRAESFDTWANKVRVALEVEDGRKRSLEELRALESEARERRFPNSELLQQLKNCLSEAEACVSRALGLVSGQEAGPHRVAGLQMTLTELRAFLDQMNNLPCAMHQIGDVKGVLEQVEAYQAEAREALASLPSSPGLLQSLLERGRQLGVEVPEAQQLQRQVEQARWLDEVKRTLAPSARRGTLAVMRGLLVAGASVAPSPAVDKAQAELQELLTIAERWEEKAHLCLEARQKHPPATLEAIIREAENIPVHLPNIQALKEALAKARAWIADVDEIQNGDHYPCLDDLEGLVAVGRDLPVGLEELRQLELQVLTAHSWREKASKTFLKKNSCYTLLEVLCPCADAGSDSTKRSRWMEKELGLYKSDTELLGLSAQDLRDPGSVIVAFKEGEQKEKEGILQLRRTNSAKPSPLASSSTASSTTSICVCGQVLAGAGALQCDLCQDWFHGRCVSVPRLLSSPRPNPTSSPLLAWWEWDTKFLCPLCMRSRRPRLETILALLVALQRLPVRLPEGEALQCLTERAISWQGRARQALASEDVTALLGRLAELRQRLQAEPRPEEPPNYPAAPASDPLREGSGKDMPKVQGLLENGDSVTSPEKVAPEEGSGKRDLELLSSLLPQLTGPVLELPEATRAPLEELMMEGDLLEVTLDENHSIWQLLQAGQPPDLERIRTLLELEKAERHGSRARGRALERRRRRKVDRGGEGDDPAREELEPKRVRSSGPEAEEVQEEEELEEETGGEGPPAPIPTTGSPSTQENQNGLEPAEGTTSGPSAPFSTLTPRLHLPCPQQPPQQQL
From the text: as §1, §2

Q: With `Cc1ccc(-c2cn3cc(C)ccc3n2)cc1` [O4I3, 6-methyl-2-(p-tolyl)imidazo[1,2-a]pyridine] as the molecule, how does the “alkaline phosphatase (AP) positive colonies in comparison to non-treated fibroblast cultures” value ([1]; 50 nM, HF1 and HF2) read?
A: 20 times

Q: What about the “reprogramming of resistant fibroblasts” value ([1]; 500 Nm, HFF-LTR7-EGFP and HF5) of the same molecule?
A: appearance of iPSC-like colonies

Q: What about the “differentiation markers T and Gata4” value [2] of the same molecule?
A: induction of those markers

Q: And the “increase of E-Cadherin mRNA levels” value [3]?
A: about 100 fold

Q: What about the “increase of Sox2 mRNA levels” value [3] of the same molecule?
A: about 100 fold

Q: And the “induction of Lin28 mRNA” value [3]?
A: about 10 fold

Q: What about the “induction of Nanog mRNA” value [3] of the same molecule?
A: about 10 fold

Q: What about the “induction of Oct4 mRNA” value [3] of the same molecule?
A: about 10 fold

Q: What about the “IC50 less potent than for KDM5A, KDM5B” value [4] of the same molecule?
A: 1,000 fold

Q: And the IC50 [5]?
A: 0.02 µM

Q: What about the “activation of Erk1” value [6] of the same molecule?
A: selectively activated

Q: And the “activation of Erk2” value [6]?
A: not

Q: And the “inhibitory effect on LSD1” value [7]?
A: hardly detected the inhibitory effect

Q: What about the “IC50 less potent than for KDM5A, KDM5D” value [8] of the same molecule?
A: 20 fold

Q: What about the “IC50 less potent than for KDM5A, KDM5C” value [9] of the same molecule?
A: 40 fold
